PubChem BioAssay AID330 (DTP/NCI, 2004)
Several values for one entry are separate records, joined by “and”; a condition that tells them apart may be missing. Identical values can stand only once. Toxic doses and inconclusive results are not listed. The calls were made as follows: active = survival T/C of 150% or more; inactive = T/C below 125% in these data.

System: P388 leukemia ip, CD2F1 mice, survival T/C
Test: NCI In Vivo Anticancer Drug Screen. Data for tumor model P388 Leukemia (intraperitoneal) in CD2F1 (CDF1) mice
Conditions: endpoint: median survival time, higher = longer survival
How it was run: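 Mice carrying the transplanted tumor received test compound or vehicle. Survival was recorded in each group, and the value is the treated-group measurement divided by that of the vehicle-treated control group.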

[1] = dose: 6.25 mg/kg/injection, schedule: Q01DX009 (ip), vehicle: saline with Tween-80
[2] = dose: 12.5 mg/kg/injection, schedule: Q01DX009 (ip), vehicle: saline with Tween-80
[3] = dose: 25.0 mg/kg/injection, schedule: Q01DX009 (ip), vehicle: saline with Tween-80
[4] = dose: 12.5 mg/kg/injection, schedule: Q01DX005 (ip), vehicle: saline
[5] = dose: 25.0 mg/kg/injection, schedule: Q01DX005 (ip), vehicle: saline
[6] = dose: 50.0 mg/kg/injection, schedule: Q01DX005 (ip), vehicle: saline
[7] = dose: 100.0 mg/kg/injection, schedule: Q01DX005 (ip), vehicle: saline
[8] = dose: 100.0 mg/kg/injection, schedule: Q01DX009 (ip), vehicle: saline
[9] = dose: 60.0 mg/kg/injection, schedule: Q01DX005 (ip), vehicle: saline with Tween-80
[10] = dose: 120.0 mg/kg/injection, schedule: Q01DX005 (ip), vehicle: saline with Tween-80
[11] = dose: 240.0 mg/kg/injection, schedule: Q01DX005 (ip), vehicle: saline with Tween-80
[12] = dose: 50.0 mg/kg/injection, schedule: Q01DX009 (ip), vehicle: saline with Tween-80
[13] = dose: 100.0 mg/kg/injection, schedule: Q01DX009 (ip), vehicle: saline with Tween-80
[14] = dose: 200.0 mg/kg/injection, schedule: Q01DX009 (ip), vehicle: saline with Tween-80
[15] = dose: 200.0 mg/kg/injection, schedule: Q01DX005 (ip), vehicle: saline
[16] = dose: 50.0 mg/kg/injection, schedule: Q01DX009 (ip), vehicle: Klucel (hydroxypropylcellulose) (HPC)
[17] = dose: 100.0 mg/kg/injection, schedule: Q01DX009 (ip), vehicle: Klucel (hydroxypropylcellulose) (HPC)

Measured: T/C

CC(C)(C)C1=CC(=O)C(C#N)=C(C#N)C1=O
inactive: [1] 95 % of control | [2] 109 % of control | [3] 100 % of control

O=c1[nH]c2ccccc2nc1CBr
inactive: dose: 1.56 mg/kg/injection, schedule: Q01DX009 (ip), vehicle: saline with Tween-80 109 % of control | dose: 3.13 mg/kg/injection, schedule: Q01DX009 (ip), vehicle: saline with Tween-80 109 % of control | [1] 113 % of control | dose: 8.33 mg/kg/injection, schedule: Q01DX009 (ip), vehicle: saline with Tween-80 118 % of control | [2] 113 % of control and 122 % of control | dose: 18.7 mg/kg/injection, schedule: Q01DX009 (ip), vehicle: saline with Tween-80 118 % of control

CC(C)SC(=O)C=C(c1ccccc1)c1ccccc1
inactive: dose: 100.0 mg/kg/injection, schedule: Q01DX001 (ip), vehicle: Klucel (hydroxypropylcellulose) (HPC) 95 % of control | dose: 200.0 mg/kg/injection, schedule: Q01DX001 (ip), vehicle: Klucel (hydroxypropylcellulose) (HPC) 96 % of control | dose: 400.0 mg/kg/injection, schedule: Q01DX001 (ip), vehicle: Klucel (hydroxypropylcellulose) (HPC) 100 % of control

[Cl][Co][Cl].[NH-]CC[N-]CC[N-]CC[NH-]
inactive: [4] 100 % of control | [5] 104 % of control | [6] 114 % of control and 107 % of control and 113 % of control | dose: 50.0 mg/kg/injection, schedule: Q01DX009 (ip), vehicle: saline 102 % of control | [7] 109 % of control | [8] 100 % of control

O=c1[nH]c(=S)[nH]nc1/C=C/c1cccc(I)c1
inactive: dose: 12.5 mg/kg/injection, schedule: Q04DX002 (ip), vehicle: saline 100 % of control | dose: 25.0 mg/kg/injection, schedule: Q04DX002 (ip), vehicle: saline 100 % of control | dose: 50.0 mg/kg/injection, schedule: Q04DX002 (ip), vehicle: saline 100 % of control | dose: 200.0 mg/kg/injection, schedule: Q04DX002 (ip), vehicle: saline 106 % of control

Nc1nc(NCCCc2ccccc2)c(N=Nc2ccccc2)c(=O)[nH]1
inactive: [9] 105 % of control | [10] 105 % of control | [11] 105 % of control

Cc1ccc(CO)c2ccccc12
inactive: [3] 96 % of control | [12] 107 % of control | [13] 96 % of control | [14] 96 % of control

CCCCC[P+](c1ccccc1)(c1ccccc1)c1ccccc1
inactive: dose: 1.56 mg/kg/injection, schedule: Q01DX009 (ip), vehicle: Klucel (hydroxypropylcellulose) (HPC) 105 % of control | dose: 3.12 mg/kg/injection, schedule: Q01DX009 (ip), vehicle: Klucel (hydroxypropylcellulose) (HPC) 111 % of control | dose: 3.13 mg/kg/injection, schedule: Q01DX009 (ip), vehicle: Klucel (hydroxypropylcellulose) (HPC) 121 % of control | dose: 6.25 mg/kg/injection, schedule: Q01DX009 (ip), vehicle: Klucel (hydroxypropylcellulose) (HPC) 121 % of control | dose: 12.5 mg/kg/injection, schedule: Q01DX009 (ip), vehicle: Klucel (hydroxypropylcellulose) (HPC) 93 % of control | dose: 25.0 mg/kg/injection, schedule: Q01DX009 (ip), vehicle: Klucel (hydroxypropylcellulose) (HPC) 100 % of control

CCCCCCCCP(=O)(N1CC1C)N1CC1C (stereo unspecified)
inactive: dose: 3.13 mg/kg/injection, schedule: Q01DX009 (ip), vehicle: saline 109 % of control | dose: 6.25 mg/kg/injection, schedule: Q01DX009 (ip), vehicle: saline 109 % of control | [2] 122 % of control | dose: 12.5 mg/kg/injection, schedule: Q01DX009 (ip), vehicle: saline 109 % of control | dose: 12.5 mg/kg/injection, schedule: Q04DX003 (ip), vehicle: saline with Tween-80 100 % of control | dose: 25.0 mg/kg/injection, schedule: Q04DX003 (ip), vehicle: saline with Tween-80 95 % of control | dose: 50.0 mg/kg/injection, schedule: Q04DX003 (ip), vehicle: saline with Tween-80 109 % of control | dose: 50.0 mg/kg/injection, schedule: Q04DX003 (ip), vehicle: saline 108 % of control

Cc1ccc(C(=O)Cc2nc3nnc(N)n3nc2CC(=O)c2ccc(C)cc2)cc1
inactive: [6] 97 % of control | [7] 100 % of control | [15] 97 % of control

NC(Cn1ccc(=O)c(O)c1)C(=O)O (stereo unspecified)
inactive: [4] 113 % of control | [5] 115 % of control | [6] 107 % of control | [7] 116 % of control | [8] 100 % of control and 96 % of control | [15] 114 % of control | dose: 200.0 mg/kg/injection, schedule: Q01DX009 (ip), vehicle: saline 102 % of control and 114 % of control | dose: 400.0 mg/kg/injection, schedule: Q01DX009 (ip), vehicle: saline 107 % of control and 96 % of control | dose: 600.0 mg/kg/injection, schedule: Q01DX009 (ip), vehicle: saline 98 % of control and 102 % of control

COc1ccc(C(c2cc3c(cc2O)OCO3)N2CCN(C(c3ccc(OC)cc3)c3cc4c(cc3O)OCO4)CC2)cc1 (stereo unspecified)
inactive: [9] 87 % of control | [10] 92 % of control | [11] 87 % of control

COc1ccc(-c2cn(-c3ccc(OC)cc3)c3ncnc(N)c23)cc1
inactive: [9] 102 % of control | [10] 100 % of control | [11] 96 % of control

O=C(O)CC1Sc2nc3c(n2C1(O)c1ccccc1)CCCC3 (stereo unspecified)
inactive: [16] 109 % of control | [17] 100 % of control | dose: 200.0 mg/kg/injection, schedule: Q01DX009 (ip), vehicle: Klucel (hydroxypropylcellulose) (HPC) 98 % of control

O=[N+]([O-])c1cc([N+](=O)[O-])c(N2CC2)cc1C1=NCCO1
inactive: [16] 98 % of control | [17] 110 % of control

O=C1OCC/C1=C1\CCCO1
inactive: [2] 112 % of control and 97 % of control | [3] 100 % of control and 102 % of control | [12] 98 % of control and 99 % of control | [13] 102 % of control and 108 % of control and 116 % of control | [14] 112 % of control | dose: 400.0 mg/kg/injection, schedule: Q01DX009 (ip), vehicle: saline with Tween-80 113 % of control

Cc1ccc(/C=N/NC(N)=S)s1
inactive: [2] 100 % of control | [3] 108 % of control | [12] 107 % of control | [13] 106 % of control

C[N+](C)(C)/N=C(/c1ccccc1)C1CCCCC1
inactive: dose: 12.5 mg/kg/injection, schedule: Q01DX001 (ip), vehicle: Klucel (hydroxypropylcellulose) (HPC) 91 % of control | dose: 25.0 mg/kg/injection, schedule: Q01DX001 (ip), vehicle: Klucel (hydroxypropylcellulose) (HPC) 100 % of control | dose: 50.0 mg/kg/injection, schedule: Q01DX001 (ip), vehicle: Klucel (hydroxypropylcellulose) (HPC) 97 % of control

CCOC(=O)COc1cc2c(cc1C(C)c1ccc(OCc3ccccc3)c(OC)c1)OCO2 (stereo unspecified)
inactive: dose: 50.0 mg/kg/injection, schedule: Q01DX005 (ip), vehicle: Klucel (hydroxypropylcellulose) (HPC) 87 % of control | dose: 100.0 mg/kg/injection, schedule: Q01DX005 (ip), vehicle: Klucel (hydroxypropylcellulose) (HPC) 90 % of control

CCCCCCCCCCCCCC[N+](C)(CC(=O)[O-])Cc1ccccc1 (stereo unspecified)
inactive: dose: 15.0 mg/kg/injection, schedule: Q01DX005 (ip), vehicle: saline with Tween-80 108 % of control | dose: 30.0 mg/kg/injection, schedule: Q01DX005 (ip), vehicle: saline with Tween-80 93 % of control | [9] 101 % of control

COc1ccc(C(C)=O)cc1OC
inactive: dose: 100.0 mg/kg/injection, schedule: Q04DX003 (ip), vehicle: saline 100 % of control | dose: 200.0 mg/kg/injection, schedule: Q04DX003 (ip), vehicle: saline 100 % of control | dose: 400.0 mg/kg/injection, schedule: Q04DX003 (ip), vehicle: saline 100 % of control

Cc1cc(C)c2c(=O)c3c(oc2c1)O[C@@](C)(CO)C[C@@H]3c1ccccc1
inactive: [9] 101 % of control | [10] 98 % of control | [11] 106 % of control

CC(C)NCCCNC(=O)C1COc2ccccc2O1 (stereo unspecified)
inactive: [6] 94 % of control | [7] 88 % of control | [15] 90 % of control

Nc1ncc(CCCCc2ccccc2)c(=O)[nH]1
inactive: dose: 100.0 mg/kg/injection, schedule: Q01DX001 (ip), vehicle: saline with Tween-80 100 % of control | dose: 200.0 mg/kg/injection, schedule: Q01DX001 (ip), vehicle: saline with Tween-80 104 % of control | dose: 400.0 mg/kg/injection, schedule: Q01DX001 (ip), vehicle: saline with Tween-80 100 % of control
